# US4345938A, “Herbicidal 2-haloacetanilides” (Monsanto Company, priority 1980, dated 1982)
# Where two headings read alike, the source gives them in different places.
# What was measured:
# Eleocharis kuroguwai = test: Field transplant rice test, applied 0 DAT, EK; format: in vivo; conditions: 0 h, read-out: Percent Inhibition, EK; for inhibition at 375 g/ha: 0.375 Kg/Ha; for inhibition at 750 g/ha: 0.75 Kg/Ha; for inhibition at 1500 g/ha: 1.5 Kg/Ha; for inhibition at 3000 g/ha: 3.0 Kg/Ha
# In short: (§1)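 Field test in transplanted rice, herbicide applied as granules (2.5% or 5.0% w/w active) at transplanting (0 DAT). Rates from 3.0 kg/ha down to 0.375 kg/ha. Weed control observed weekly from 2 to 6 weeks after transplant, reported at 2, 4 and 6 WAT.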
# Sagittaria trifolia [1] = test: Field transplant rice test, applied 9 DAT, ST; format: in vivo; conditions: 216 h, read-out: Percent Inhibition, ST; for inhibition at 375 g/ha: 0.375 Kg/Ha; for inhibition at 750 g/ha: 0.75 Kg/Ha; for inhibition at 1500 g/ha: 1.5 Kg/Ha; for inhibition at 3000 g/ha: 3.0 Kg/Ha
# In short: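 Field test in transplant rice: herbicides applied 9 DAT as granules (2.5% or 5.0% by weight active) at 3.0 down to 0.375 kg/ha. Weed control observed weekly from 3 to 7 WAT.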
# Cyperus serotinus = test: Field transplant rice test, applied 0 DAT, CS; format: in vivo; conditions: 0 h, read-out: Percent Inhibition, CS; for inhibition at 375 g/ha: 0.375 Kg/Ha; for inhibition at 750 g/ha: 0.75 Kg/Ha; for inhibition at 1500 g/ha: 1.5 Kg/Ha; for inhibition at 3000 g/ha: 3.0 Kg/Ha
# In short: as §1
# Rice [2] = test: Greenhouse transplant rice test, rice injury; format: in vivo, Rice (Bluebelle); conditions: Oryza sativa, about 3 WAT, read-out: Percent Inhibition, Rice
# From the text: (§2) The test procedure used in this greenhouse test is as follows: Ray silt loam top soil containing about 0.05% by weight of krillium and sifted through a […] screen is fumigated about 5-10 days prior to use. Pots are then filled with said Ray silt loam soil to a level to allow for a 1 in. (2.54 cm) flooding depth. Rice plants (Bluebelle) of 2 to 3 weeks age are transplanted to the pots and bulbs or seeds of the test weeds also planted in the pots. The pots are then flooded and the test chemical applied to the surface of the flood water. The flood water is reduced to allow for germination of the Echinochloa crus-galli (barnyardgrass) seed and subsequently reflooded and maintained in that condition. Observations of percent inhibition using a scale of 0-100% are made about 3 weeks after transplant (WAT).
# (§3) The test data in Table III for all compounds was obtained under identical test conditions. The weeds used in the tests herein have the following abbreviations in the tables: Echinochloa crus-galli (EC), Monochloria vaginalis (MV), Cyperus Serotinus (CS), Eleocharis Kuroguwai (EK) and Sagittaria trifolia (ST).
# Sagittaria trifolia [3] = test: Field transplant rice test, applied 0 DAT, ST; format: in vivo; conditions: 0 h, read-out: Percent Inhibition, ST; for inhibition at 375 g/ha: 0.375 Kg/Ha; for inhibition at 750 g/ha: 0.75 Kg/Ha; for inhibition at 1500 g/ha: 1.5 Kg/Ha; for inhibition at 3000 g/ha: 3.0 Kg/Ha
# In short: as §1
# Rice [4] = test: Field transplant rice test, applied 0 DAT, rice injury; format: in vivo; conditions: Oryza sativa, 0 h, read-out: Percent Inhibition, Rice; for inhibition at 375 g/ha: 0.375 Kg/Ha; for inhibition at 750 g/ha: 0.75 Kg/Ha; for inhibition at 1500 g/ha: 1.5 Kg/Ha; for inhibition at 3000 g/ha: 3.0 Kg/Ha
# In short: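 Field test in transplant rice with herbicide applied as granules at transplanting (0 DAT), at rates from 3.0 kg/ha down to 0.375 kg/ha. Injury was rated weekly from 2 to 6 weeks after transplant. Granules held 2.5% or 5.0% herbicide by weight, depending on compound.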
# Monochoria vaginalis [5] = test: Field transplant rice test, applied 0 DAT, MV; format: in vivo; conditions: Pontederia vaginalis, 0 h, read-out: Percent Inhibition, MV; for inhibition at 375 g/ha: 0.375 Kg/Ha; for inhibition at 750 g/ha: 0.75 Kg/Ha; for inhibition at 1500 g/ha: 1.5 Kg/Ha; for inhibition at 3000 g/ha: 3.0 Kg/Ha
# In short: as §1
# Monochoria vaginalis [6] = test: Greenhouse transplant rice test, MV; format: in vivo; conditions: Pontederia vaginalis, about 3 WAT, read-out: Percent Inhibition, MV
# From the text: as §2, §3
# Sagittaria trifolia [7] = test: Greenhouse transplant rice test, ST; format: in vivo; conditions: Sagittaria trifolia, about 3 WAT, read-out: Percent Inhibition, ST
# From the text: as §2, §3
smiles,measurement,setting,value
"CCCCOCN(C(=O)CCl)c1c(CC)cccc1CC [Compound A, 2',6'-diethyl-N-(n-butoxymethyl)-2-chloroacetanilide]",inhibition at 375 g/ha,Eleocharis kuroguwai; 2 WAT,65%
same,inhibition at 375 g/ha,Eleocharis kuroguwai; 4 WAT,33%
same,inhibition at 375 g/ha,Eleocharis kuroguwai; 6 WAT,10%
same,inhibition at 750 g/ha,Eleocharis kuroguwai; 2 WAT,45%
same,inhibition at 750 g/ha,Eleocharis kuroguwai; 4 WAT,22%
same,inhibition at 750 g/ha,Eleocharis kuroguwai; 6 WAT,0%
same,inhibition at 1500 g/ha,Eleocharis kuroguwai; 2 WAT,83%
same,inhibition at 1500 g/ha,Eleocharis kuroguwai; 4 WAT,78%
same,inhibition at 1500 g/ha,Eleocharis kuroguwai; 6 WAT,28%
same,inhibition at 3000 g/ha,Eleocharis kuroguwai; 2 WAT,90%
same,inhibition at 3000 g/ha,Eleocharis kuroguwai; 4 WAT,88%
same,inhibition at 3000 g/ha,Eleocharis kuroguwai; 6 WAT,68%
same,inhibition at 375 g/ha,Sagittaria trifolia [1]; 3 WAT,37%
same,inhibition at 375 g/ha,Sagittaria trifolia [1]; 5 WAT,12%
same,inhibition at 375 g/ha,Sagittaria trifolia [1]; 7 WAT,7%
same,inhibition at 750 g/ha,Sagittaria trifolia [1]; 3 WAT,26%
same,inhibition at 750 g/ha,Sagittaria trifolia [1]; 5 WAT,10%
same,inhibition at 750 g/ha,Sagittaria trifolia [1]; 7 WAT,8%
same,inhibition at 1500 g/ha,Sagittaria trifolia [1]; 3 WAT,35%
same,inhibition at 1500 g/ha,Sagittaria trifolia [1]; 5 WAT,5%
same,inhibition at 1500 g/ha,Sagittaria trifolia [1]; 7 WAT,3%
same,inhibition at 3000 g/ha,Sagittaria trifolia [1]; 3 WAT,52%
same,inhibition at 3000 g/ha,Sagittaria trifolia [1]; 5 WAT,23%
same,inhibition at 3000 g/ha,Sagittaria trifolia [1]; 7 WAT,13%
same,inhibition at 375 g/ha,Cyperus serotinus; 2 WAT,67%
same,inhibition at 375 g/ha,Cyperus serotinus; 4 WAT,67%
same,inhibition at 375 g/ha,Cyperus serotinus; 6 WAT,63%
same,inhibition at 750 g/ha,Cyperus serotinus; 2 WAT,95%
same,inhibition at 750 g/ha,Cyperus serotinus; 4 WAT,93%
same,inhibition at 750 g/ha,Cyperus serotinus; 6 WAT,93%
same,inhibition at 1500 g/ha,Cyperus serotinus; 2 WAT,90%
same,inhibition at 1500 g/ha,Cyperus serotinus; 4 WAT,82%
same,inhibition at 1500 g/ha,Cyperus serotinus; 6 WAT,77%
same,inhibition at 3000 g/ha,Cyperus serotinus; 2 WAT,73%
same,inhibition at 3000 g/ha,Cyperus serotinus; 4 WAT,68%
same,inhibition at 3000 g/ha,Cyperus serotinus; 6 WAT,50%
same,inhibition at 280 g/ha,Rice [2]; 0.28 Kg/Ha,5%
same,inhibition at 560 g/ha,Rice [2]; 0.56 Kg/Ha,10%
same,inhibition at 1120 g/ha,Rice [2]; 1.12 Kg/Ha,10%
same,inhibition at 2240 g/ha,Rice [2]; 2.24 Kg/Ha,15%
same,inhibition at 375 g/ha,Sagittaria trifolia [3]; 2 WAT,37%
same,inhibition at 375 g/ha,Sagittaria trifolia [3]; 4 WAT,22%
same,inhibition at 375 g/ha,Sagittaria trifolia [3]; 6 WAT,7%
same,inhibition at 750 g/ha,Sagittaria trifolia [3]; 2 WAT,52%
same,inhibition at 750 g/ha,Sagittaria trifolia [3]; 4 WAT,20%
same,inhibition at 750 g/ha,Sagittaria trifolia [3]; 6 WAT,15%
same,inhibition at 1500 g/ha,Sagittaria trifolia [3]; 2 WAT,60%
same,inhibition at 1500 g/ha,Sagittaria trifolia [3]; 4 WAT,33%
same,inhibition at 1500 g/ha,Sagittaria trifolia [3]; 6 WAT,20%
same,inhibition at 3000 g/ha,Sagittaria trifolia [3]; 2 WAT,42%
same,inhibition at 3000 g/ha,Sagittaria trifolia [3]; 4 WAT,33%
same,inhibition at 3000 g/ha,Sagittaria trifolia [3]; 6 WAT,12%
same,inhibition at 375 g/ha,Rice [4]; 2 WAT,8%
same,inhibition at 375 g/ha,Rice [4]; 4 WAT,10%
same,inhibition at 375 g/ha,Rice [4]; 6 WAT,7%
same,inhibition at 750 g/ha,Rice [4]; 2 WAT,2%
same,inhibition at 750 g/ha,Rice [4]; 4 WAT,0%
same,inhibition at 750 g/ha,Rice [4]; 6 WAT,0%
same,inhibition at 1500 g/ha,Rice [4]; 2 WAT,8%
same,inhibition at 1500 g/ha,Rice [4]; 4 WAT,23%
same,inhibition at 1500 g/ha,Rice [4]; 6 WAT,5%
same,inhibition at 3000 g/ha,Rice [4]; 2 WAT,10%
same,inhibition at 3000 g/ha,Rice [4]; 4 WAT,2%
same,inhibition at 3000 g/ha,Rice [4]; 6 WAT,3%
same,inhibition at 375 g/ha,Monochoria vaginalis [5]; 2 WAT,98%
same,inhibition at 375 g/ha,Monochoria vaginalis [5]; 4 WAT,87%
same,inhibition at 375 g/ha,Monochoria vaginalis [5]; 6 WAT,82%
same,inhibition at 750 g/ha,Monochoria vaginalis [5]; 2 WAT,100%
same,inhibition at 750 g/ha,Monochoria vaginalis [5]; 4 WAT,98%
same,inhibition at 750 g/ha,Monochoria vaginalis [5]; 6 WAT,100%
same,inhibition at 1500 g/ha,Monochoria vaginalis [5]; 2 WAT,100%
same,inhibition at 1500 g/ha,Monochoria vaginalis [5]; 4 WAT,100%
same,inhibition at 1500 g/ha,Monochoria vaginalis [5]; 6 WAT,100%
same,inhibition at 3000 g/ha,Monochoria vaginalis [5]; 2 WAT,100%
same,inhibition at 3000 g/ha,Monochoria vaginalis [5]; 4 WAT,100%
same,inhibition at 3000 g/ha,Monochoria vaginalis [5]; 6 WAT,100%
same,inhibition at 280 g/ha,Monochoria vaginalis [6]; 0.28 Kg/Ha,98%
same,inhibition at 560 g/ha,Monochoria vaginalis [6]; 0.56 Kg/Ha,100%
same,inhibition at 1120 g/ha,Monochoria vaginalis [6]; 1.12 Kg/Ha,100%
same,inhibition at 2240 g/ha,Monochoria vaginalis [6]; 2.24 Kg/Ha,100%
same,inhibition at 280 g/ha,Sagittaria trifolia [7]; 0.28 Kg/Ha,15%
same,inhibition at 560 g/ha,Sagittaria trifolia [7]; 0.56 Kg/Ha,45%
same,inhibition at 1120 g/ha,Sagittaria trifolia [7]; 1.12 Kg/Ha,30%
same,inhibition at 2240 g/ha,Sagittaria trifolia [7]; 2.24 Kg/Ha,15%
